Assay results taken from ChEMBL document CHEMBL1131207, “Discovery and evaluation of a series of 3-acylindole imidazopyridine platelet-activating factor antagonists” (J Med Chem, 1998).
Values after ≈ are worked out from the molar mass of the structure shown.

Legend:
[1] = target: Platelet-activating factor receptor (Rattus norvegicus) (UniProt P46002); test: Ability to block the effect of exogenously administered PAF upon intravenous administration in PAF-induced rat skin permeability assay; assay type: functional, organism-based
[2] = The compound was evaluated for its solubility in lactate buffer at pH 3; assay type: ADME
Rattus norvegicus [3] = test: The compound was evaluated for its PAF-induced vascular permeability in rat when dosed orally; assay type: functional; details: po
Cavia porcellus [4] = test: The compound was evaluated for its PAF-induced vascular permeability in guinea pig when dosed orally; assay type: functional; details: po
Cavia porcellus [5] = test: The compound was evaluated for its PAF-induced vascular permeability in guinea pig when dosed intravenously; assay type: functional; details: iv
Rattus norvegicus [6] = test: The compound was evaluated for its PAF-induced vascular permeability in rat when dosed intravenously; assay type: functional; details: iv
[7] = target: Platelet-activating factor receptor (Homo sapiens, UniProt P25105); test: The compound was evaluated for its binding affinity against PAF receptor in human platelet
[8] = The bioavailability in monkey was evaluated; assay type: ADME, organism-based; details: primates, in vivo
Cavia porcellus [9] = test: The compound was evaluated for PAF-induced vascular permeability in guinea pig when dosed intravenously; assay type: functional; details: iv
Cavia porcellus [10] = test: The compound was evaluated for PAF-induced vascular permeability in guinea pig when dosed orally; assay type: functional; details: po
[11] = The bioavailability in rat was evaluated; assay type: ADME, organism-based; details: in vivo
[12] = The solubility in lactate buffer at pH 3 was evaluated; assay type: ADME
[13] = target: Platelet-activating factor receptor (Rattus norvegicus) (UniProt P46002); test: Tested in vivo for to block the effect of exogenously administered PAF upon oral administration in PAF-induced rat skin permeability assay; assay type: functional, organism-based
[14] = The compound was evaluated for its bioavailability in monkey; assay type: ADME, organism-based; details: primates, in vivo
[15] = The compound was evaluated for its bioavailability in rat; assay type: ADME, organism-based; details: in vivo

Platelet-activating factor receptor, sequence (P25105 whole entry): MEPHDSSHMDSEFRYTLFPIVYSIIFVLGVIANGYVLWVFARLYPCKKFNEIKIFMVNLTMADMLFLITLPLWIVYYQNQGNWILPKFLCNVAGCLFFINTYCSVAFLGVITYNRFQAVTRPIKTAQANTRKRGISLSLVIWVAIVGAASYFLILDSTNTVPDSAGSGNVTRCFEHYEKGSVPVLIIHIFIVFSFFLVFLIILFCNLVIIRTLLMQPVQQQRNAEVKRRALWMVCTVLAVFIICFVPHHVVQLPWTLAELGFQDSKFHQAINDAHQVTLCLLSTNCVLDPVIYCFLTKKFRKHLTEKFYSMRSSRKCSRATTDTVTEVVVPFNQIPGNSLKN
Platelet-activating factor receptor (Rattus norvegicus), sequence (P46002 whole entry): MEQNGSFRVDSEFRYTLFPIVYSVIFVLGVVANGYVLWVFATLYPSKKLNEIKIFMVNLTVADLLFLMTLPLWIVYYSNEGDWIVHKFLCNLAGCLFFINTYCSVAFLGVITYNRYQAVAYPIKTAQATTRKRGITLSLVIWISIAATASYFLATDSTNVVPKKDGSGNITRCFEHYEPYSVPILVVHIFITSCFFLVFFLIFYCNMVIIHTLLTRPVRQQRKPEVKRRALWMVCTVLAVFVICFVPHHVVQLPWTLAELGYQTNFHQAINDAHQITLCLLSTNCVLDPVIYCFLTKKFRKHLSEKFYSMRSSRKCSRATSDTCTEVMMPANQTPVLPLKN

| Structure (SMILES) | ED50 [1] [mg/kg] | solubility [2] [mg/mL] | ED50 (Rattus norvegicus [3]) [mg/kg] | ED50 (Cavia porcellus [4]) [mg/kg] | ED50 (Cavia porcellus [5]) [mg/kg] | ED50 (Rattus norvegicus [6]) [mg/kg] | Ki [7] [nM] | bioavailability [8] [%] | ED50 (Cavia porcellus [9]) [mg/kg] | ED50 (Cavia porcellus [10]) [mg/kg] | bioavailability [11] [%] | solubility [12] [mg/mL] | ED50 [13] [mg/kg] | bioavailability [14] [%] | bioavailability [15] [%] |
| --- | --- | --- | --- | --- | --- | --- | --- | --- | --- | --- | --- | --- | --- | --- | --- |
| Cc1nc2cnccc2n1Cc1ccc(C(=O)c2cn(C(=O)N(C)C)c3cc(-c4ccc(F)cc4)ccc23)cc1 | 0.068 | 0.12 (≈ 0.226 mM) | 0.5 | – | – | – | – | – | – | – | – | – | – | – | – |
| CCOC(=O)[C@H](CC(C)C)N(C)S(=O)(=O)c1ccc(Cn2c(C)nc3cnccc32)cc1 [LEXIPAFANT] | – | > 20 | 0.8 | 10.3 | 0.027 | 0.02 | 0.38 | – | – | – | – | – | – | – | – |
| C#Cc1cccc2c1c(C(=O)c1ccc(Cn3c(C)nc4cnccc43)c(F)c1)cn2C(=O)N(C)C | 0.003 | – | – | – | – | – | 0.57 | 56 | 0.016 | 0.29 | 49 | > 20 | 0.094 | – | – |
| CC(=O)OC[n+]1cccc([C@H]2SCc3c(C(=O)c4cn(C(=O)N(C)C)c5cc(-c6ccc(F)cc6)ccc45)ccn32)c1.[Cl-] | – | – | 0.08 | 0.08 | 0.09 | 0.006 | 0.98 | – | – | – | – | – | – | 36 | 46 |
